Measured values from patent publication US8686059B2, “Base and radical generator, composition using same and method for curing same” (Three Bond Co., Ltd., priority 2009, dated 2014).

Legend:
[1] = Confirmation of photobase generation: pH of aqueous solution before and after 365-nm irradiation; assay type: physicochemical; settings: 1.00 g/L aqueous solution
Experimental: An aqueous solution having a concentration of 1.00 g/L was prepared from the aminimide compound A and pure water, and 50 ml of this was put into a transparent glass-made sample bottle having an inner diameter of 38 mm and a height of 58 mm, and with stirring with a stirrer while sealed up, the pH of the aqueous solution was measured with a pH meter, Horiba Seisakusho's D54. Further kept sealed up, the sample bottle was irradiated with 365-nm active energy rays on the side thereof at a lighting intensity of 100 mW/cm^2, using a spot UV irradiator, Hamamatsu Photonics' LC8, and the pH of the solution was measured after irradiation for specified seconds. The pH before irradiation with active energy rays was 6.28; and the pH after irradiation with active energy rays for 20 seconds was 9.78; the pH after irradiation for 30 seconds was 9.90; and the pH after irradiation for 50 seconds was 10.01.

pH before irradiation with active energy rays [1]	pH after irradiation with active energy rays for 20 seconds ([1]; 365 nm, 100 mW/cm^2, 20 seconds)	pH after irradiation for 30 seconds ([1]; 365 nm, 100 mW/cm^2, 30 seconds)	pH after irradiation for 50 seconds ([1]; 365 nm, 100 mW/cm^2, 50 seconds)	melting point	Compound
6.28	9.78	9.90	10.01	–	CC(O)C[N+](C)(C)[N-]C(=O)C(=O)c1ccccc1 (stereo not drawn) [Aminimide Compound A]
–	–	–	–	102 to 103 °C (dec.)	COc1ccc(C(=O)C(=O)[N-][N+](C)(C)CC(C)O)cc1 (stereo not drawn) [Aminimide Compound B]
–	–	–	–	100 to 101 °C (dec.)	CC(=O)OC(C)C[N+](C)(C)[N-]C(=O)C(=O)c1ccccc1 (stereo not drawn) [Aminimide Compound D]
